In brackets after ≈: the same amount, converted by molar mass.
Key:
[1] = test system: granulomas in female rats; assay: Felt Pellet Test (granuloma reduction, oral); type: in vivo; settings: Rattus norvegicus, four successive days, female rats (90-110 g), removed on 5th day, read-out: Felt Pellet ED40 (dosage which gave a 40% reduction of the granulation weight)
Protocol: (§1) The tests carried out can be described as follows:
Two felt pellets were implanted under the skin (scapula region) in female rats (90-110 g) under ether narcosis. The D-homosteroids were administered orally on four successive days commencing on the day of the implantation. On the 5th day, the rats were killed, and the granulomas which formed were removed, dried and weighed. The ED40, namely that dosage which gave a 40% reduction of the granulation weight, was determined.

[2] = test system: ear of male mice (oedema); assay: Mouse Ear Test (oedema inhibition, topical, croton oil); type: in vivo; settings: dissolved in croton oil, applied 15 seconds under 600 g to right ear of male mice (25-30 g), 4 hours, read-out: Mouse Ear EC50 (concentration which gave a 50% oedema inhibition in comparison with a control group)
Protocol: as §1
The D-homosteroids, dissolved in croton oil, were applied for 15 seconds under a pressure of 600 g to the right ear of male mice weighing 25-30 g. The left ear served as the control. Four hours later, the mice were killed, and tissue was removed with a punch from the same position on treated and untreated ears and weighed. The EC50, namely that concentration which gave a 50% oedema inhibition in comparison with a control group, was determined.

Question: With `COC(=O)C1(OC(C)=O)C=CCC2C3CCC4=CC(=O)C=CC4(C)C3(F)C(O)CC21C` [17-acetoxy-9-fluoro-11β-hydroxy-3-oxo-D-homoandrosta-1,4,16-triene-17aβ-carboxylic acid methyl ester] as the compound, how does the ED40 [1] read?
Answer: Its ED40 is 6 mg/kg.

Question: And the EC50 [2]?
Answer: The EC50 was 10 µg/mL (≈ 23.1 µM).

Question: What does the source list for `COC(=O)C1(OC(C)=O)C=CCC2C3CCC4=CC(=O)C=CC4(C)C3C(O)CC21C` [17aα-acetoxy-11β-hydroxy-3-oxo-D-homoandrosta-1,4,16-triene-17aβ-carboxylic acid methyl ester]?
Answer: ED40 [1]: 6.4 mg/kg; EC50 [2]: 30 µg/mL (≈ 72.4 µM)

Source: patent US4272630A, “D-Homosteroids” (priority 1979, dated 1981)
